Assay results taken from patent publication US8541002B2, “Vaccine for treatment and prevention of herpes simplex virus infection” (Agenus Inc., priority 2003, dated 2013).
Where no end group is shown, it is not given here.

Test: Turbidity assay for solubility of the peptides
Assay type: physicochemical
Conditions: solubility of the antigenic peptides in water or Dimethyl Sulfoxide (DMSO)
Procedure: A number of antigenic peptides of the invention were synthesized by chemical synthesis as described in Section 5.1.1.
A turbidity assay was used to assess the solubility of the peptides. Turbidity assays used either a Varian Cary double-beam spectrophotometer, or a Molecular Devices Spectromax absorbance plate reader (for high throughput experiments). The spectrophotometer assay read every 2 nm between 340 nm and 360 nm, and averaged the values. Samples were analyzed in duplicate using a quartz micro-cuvette that holds about 200 uL. The plate reader assay used a 96-well plate format that read every 4 nm between 340 nm and 360 nm and averaged those values. Samples in this assay were run in triplicate.

Molecule	Solubility
CC[C@H](C)[C@H](NC(=O)[C@H](CO)NC(=O)[C@H](CC(=O)O)NC(=O)[C@@H](NC(=O)[C@@H](NC(=O)[C@@H](NC(=O)CNC(=O)[C@H](CCC(N)=O)NC(=O)[C@H](CCC(N)=O)NC(=O)[C@H](Cc1ccc(O)cc1)NC(=O)[C@H](C)NC(=O)[C@H](CCCCN)NC(=O)[C@@H](N)CO)C(C)C)[C@@H](C)O)C(C)C)C(=O)NCC(=O)N[C@@H](CCSC)C(=O)N[C@@H](CC(C)C)C(=O)N1CCC[C@H]1C(=O)N[C@@H](CCCNC(=N)N)C(=O)N[C@@H](Cc1ccccc1)C(=O)N[C@H](C(=O)N1CCC[C@H]1C(=O)N[C@@H](CCC(=O)O)C(=O)N[C@@H](CC(N)=O)C(=O)N[C@@H](CCC(N)=O)C(=O)N[C@@H](CCCNC(=N)N)C(=O)N[C@H](C(=O)N[C@H](C(=O)N[C@@H](C)C(=O)N[C@@H](CC(C)C)C(=O)N[C@@H](Cc1ccc(O)cc1)C(=O)N[C@@H](CO)C(=O)N[C@@H](CC(C)C)C(=O)N[C@@H](CCCCN)C(=O)N[C@H](C(=O)N[C@@H](C)C(=O)O)[C@@H](C)CC)C(C)C)[C@@H](C)O)[C@@H](C)CC [US06-3]	water
PQPPLPQPPLPQPPLPQPPLPPVTRTLTPQSRDSV [UL36-3]	water
CSCC[C@H](NC(=O)[C@H](C)N)C(=O)N[C@@H](CO)C(=O)N[C@@H](CCCNC(=N)N)C(=O)N[C@@H](CCCNC(=N)N)C(=O)N[C@@H](Cc1ccc(O)cc1)C(=O)N[C@@H](CC(=O)O)C(=O)N[C@@H](CCCNC(=N)N)C(=O)N[C@@H](C)C(=O)N[C@@H](CCC(N)=O)C(=O)N[C@@H](CCCCN)C(=O)NCC(=O)N[C@@H](Cc1ccccc1)C(=O)N[C@@H](CC(C)C)C(=O)N[C@@H](CC(C)C)C(=O)N[C@H](C(=O)N[C@@H](CO)C(=O)N[C@@H](CC(C)C)C(=O)N[C@@H](CCCNC(=N)N)C(=O)N[C@@H](CCCNC(=N)N)C(=O)N[C@@H](C)C(=O)N[C@@H](Cc1ccc(O)cc1)C(=O)N[C@@H](C)C(=O)N1CCC[C@H]1C(=O)N[C@@H](CC(C)C)C(=O)N[C@@H](CC(C)C)C(=O)N[C@@H](C)C(=O)N[C@@H](CCCNC(=N)N)C(=O)N[C@@H](CCC(=O)O)C(=O)N[C@@H](CC(N)=O)C(=O)N[C@@H](C)C(=O)N[C@@H](C)C(=O)N[C@@H](CC(C)C)C(=O)N[C@H](C(=O)NCC(=O)O)[C@@H](C)O)[C@@H](C)O [RS01-2]	water
AGLPSPVPYAPLGSPDPSSPRQRTYVLPRVGIHNA [US10-1]	water
CC[C@H](C)[C@H](NC(=O)[C@H](CC(=O)O)NC(=O)[C@H](CCCCN)NC(=O)[C@@H](NC(=O)[C@H](CC(=O)O)NC(=O)[C@H](CO)NC(=O)[C@H](CC(C)C)NC(=O)[C@H](CCCNC(=N)N)NC(=O)[C@H](CCCNC(=N)N)NC(=O)[C@H](CCCNC(=N)N)NC(=O)[C@H](CO)NC(=O)[C@H](CS)NC(=O)[C@H](CC(C)C)NC(=O)[C@H](CC(=O)O)NC(=O)[C@H](CC(=O)O)NC(=O)[C@@H](N)CC(C)C)[C@@H](C)CC)C(=O)N[C@@H](C)C(=O)N[C@@H](CO)C(=O)N[C@@H](Cc1ccccc1)C(=O)N[C@H](C(=O)N[C@@H](CC(C)C)C(=O)N[C@H](C(=O)N[C@H](C(=O)N[C@@H](CC(C)C)C(=O)N[C@@H](C)C(=O)N[C@@H](CCCNC(=N)N)C(=O)N[C@@H](CC(C)C)C(=O)N[C@@H](C)C(=O)N[C@@H](CC(N)=O)C(=O)N[C@@H](CCCNC(=N)N)C(=O)N[C@H](C(=O)N[C@@H](CCC(=O)O)C(=O)N[C@@H](CCCNC(=N)N)C(=O)NCC(=O)N[C@H](C(=O)O)C(C)C)C(C)C)[C@@H](C)CC)C(C)C)C(C)C [UL54-2]	water
DRPPESPGSELYPLNAQALAHLQMLPADHRAFFRT [US10-2]	water
ILSPGALAAIENYVRFSADRLLGLIHMQPLYSAPA [UL40-2]	water
DEAFPIEYVLRLMNDWADVPCNPYLRVQNTGVSVL [UL34-1]	DMSO
CC[C@H](C)[C@H](NC(=O)[C@H](CC(C)C)NC(=O)[C@H](CO)NC(=O)[C@@H](NC(=O)[C@@H](NC(=O)[C@H](Cc1ccc(O)cc1)NC(=O)[C@H](CCCCN)NC(=O)[C@@H](NC(=O)[C@H](Cc1ccc(O)cc1)NC(=O)[C@H](CCCNC(=N)N)NC(=O)[C@H](Cc1c[nH]cn1)NC(=O)[C@H](CCC(=O)O)NC(=O)[C@@H](NC(=O)[C@H](CC(C)C)NC(=O)[C@H](CCC(=O)O)NC(=O)[C@H](C)NC(=O)[C@@H](NC(=O)[C@@H](N)[C@@H](C)O)[C@@H](C)CC)C(C)C)C(C)C)C(C)C)[C@@H](C)CC)C(=O)N[C@@H](CO)C(=O)N1CCC[C@H]1C(=O)N[C@@H](CCCCN)C(=O)N[C@@H](CCC(=O)O)C(=O)N[C@@H](CCCNC(=N)N)C(=O)NCC(=O)N1CCC[C@H]1C(=O)N[C@@H](Cc1c[nH]c2ccccc12)C(=O)N[C@H](C(=O)N[C@@H](CC(C)C)C(=O)N[C@@H](CC(C)C)C(=O)N[C@@H](CCCCN)C(=O)N[C@@H](CCCNC(=N)N)C(=O)N[C@@H](CC(C)C)C(=O)N1CCC[C@H]1C(=O)N[C@H](C(=O)N[C@@H](Cc1ccc(O)cc1)C(=O)O)[C@@H](C)CC)[C@@H](C)O [UL41-2]	water
CC[C@H](C)[C@H](NC(=O)[C@@H]1CCCN1C(=O)[C@H](CC(C)C)NC(=O)[C@H](Cc1ccc(O)cc1)NC(=O)[C@@H](N)CCCNC(=N)N)C(=O)N[C@@H](C)C(=O)NCC(=O)N[C@H](C(=O)N[C@@H](CO)C(=O)N[C@@H](CO)C(=O)N[C@H](C(=O)N[C@H](C(=O)N[C@@H](C)C(=O)N[C@@H](CC(C)C)C(=O)N[C@@H](C)C(=O)N1CCC[C@H]1C(=O)N[C@@H](Cc1ccc(O)cc1)C(=O)N[C@H](C(=O)N[C@@H](CC(N)=O)C(=O)N[C@@H](CCCCN)C(=O)N[C@H](C(=O)N[C@H](C(=O)N[C@H](C(=O)NCC(=O)N[C@@H](CC(=O)O)C(=O)N[C@@H](CS)C(=O)N[C@@H](CC(C)C)C(=O)N1CCC[C@H]1C(=O)N[C@H](C(=O)N[C@@H](CC(C)C)C(=O)N[C@@H](CC(=O)O)C(=O)N[C@@H](CCSC)C(=O)N[C@@H](CCC(=O)O)C(=O)N[C@H](C(=O)NCC(=O)O)[C@@H](C)O)C(C)C)[C@@H](C)O)C(C)C)[C@@H](C)O)C(C)C)C(C)C)C(C)C)C(C)C [RL02-2]	DMSO
CSCC[C@H](NC(=O)[C@H](CC(C)C)NC(=O)[C@H](Cc1ccccc1)NC(=O)CNC(=O)[C@H](CC(C)C)NC(=O)[C@H](CC(N)=O)NC(=O)[C@H](CC(=O)O)NC(=O)[C@H](CCC(=O)O)NC(=O)[C@H](CO)NC(=O)[C@@H](NC(=O)[C@H](C)NC(=O)[C@H](CO)NC(=O)[C@H](Cc1ccccc1)NC(=O)[C@H](CO)NC(=O)[C@H](CC(=O)O)NC(=O)[C@H](Cc1ccc(O)cc1)NC(=O)[C@H](Cc1ccc(O)cc1)NC(=O)[C@H](CO)NC(=O)[C@H](Cc1c[nH]c2ccccc12)NC(=O)[C@@H](N)CCCNC(=N)N)C(C)C)C(=O)N[C@@H](Cc1c[nH]cn1)C(=O)N[C@@H](C)C(=O)N1CCC[C@H]1C(=O)N[C@@H](C)C(=O)N[C@@H](Cc1ccccc1)C(=O)N[C@@H](CCC(=O)O)C(=O)N[C@H](C(=O)N[C@@H](C)C(=O)NCC(=O)N[C@H](C(=O)N[C@@H](Cc1ccc(O)cc1)C(=O)N[C@@H](CC(C)C)C(=O)N[C@@H](CCCNC(=N)N)C(=O)N[C@@H](CC(C)C)C(=O)N[C@H](C(=O)O)C(C)C)[C@@H](C)O)[C@@H](C)O [US06-1]	DMSO
VSPAHPQTPVGAGSRDLSLKGTPSDGMQPRGADTL [US11-1]	water
